The values below come from EP3498714B1 (priority 2017, dated 2019).

A word on the IC50: it is the concentration that gives 50% inhibition.

In one data set the test system is S. aureus Newman. In words: MIC in RPMI-1640 macrophage growth medium. In kind it is cell-based. The settings on record: RPMI-1640 macrophage growth medium supplemented with 0.5% (v/v) FBS. As for the experimental part:
Determination of intracellular efficiency. For infection experiments, cells were seeded in 24-well plates in RPMI-1640 supplemented with 10% FBS and 150 nM phorbol 12-myristate 13-acetate (PMA) at a concentration of 10^5 cells/well. After 2 d, the cells were differentiated into macrophages and reached a cell density of ca. 2 x 10^5 cells/well. The medium was then removed and the cells were washed twice with PBS. An inoculum of ca. 2×10^6 CFU (colony-forming units) of S. aureus Newman in log phase (multiplicity of infection, MOI=10) was added to each well in RPMI/10% FBS and the plates were incubated at 37 °C and 5% CO2 in a water vapor-saturated atmosphere. The inoculum was checked by serial dilution and plating on CASO agar (1.5% peptone casein, 0.5% peptone soymeal, 0.5% NaCl, 1.5% agar, pH 7.3). After 2 h, the infected cells were washed three times with PBS (phosphate-buffered saline; pH 7.4) and incubated with fresh growth medium containing 10 µg/mL lysostaphin (≥500 U/mg) for 30 min in order to kill remaining extracellular bacteria. The initial load (Control t0) was checked by recovery of intracellular bacteria and plating on CASO agar. After three times washing with PBS the test compounds were added in RPMI-1640/0.5% FBS at the given concentrations for 18 h. After repeated washing with PBS the intracellular bacteria were recovered by adding ice-cooled water for 10 min and the bacterial suspensions were further diluted in 0.9% (w/v) NaCl prior to plating on CASO agar. The plates were incubated overnight at 37 °C and colonies were counted. The MIC values on S. aureus Newman in RPMI-1640 macrophage growth medium supplemented with 0.5% (v/v) fetal bovine serum (FBS) for neosorangicin A (2), sorangicin A (1) and the reference antibiotic rifampicin (RIF) were 0.01, 0.13 and 0.01 µg/mL, respectively. Human THP-1 macrophages were infected with S. aureus at an MOI (multiplicity of infection) of 10. After killing of extracellular bacteria, the cells were treated for 18 h with the antibiotics at their respective 1x and 8x MIC. […]

Another data set has as its system Human THP-1 macrophages. In words: Toxicity towards THP-1 macrophages (microscopic control). The settings on record: 18 h treatment at 1x and 8x MIC. It counts as cell-based. As for the experimental part: • Figure 1. Chemical structures of sorangicin A (1) and of a compound according to the present invention - neosorangicin A - (2). • Figure 2. A) Reduction of intracellular S. aureus Newman (CFU: colony-forming unit) in PMA-differentiated THP-1 cells after 18 h treatment with rifampicin (RIF), neosorangicin A (2) and sorangicin A (1) at their respective 1x and 8x MIC. B) Microscopic control of THP-1 cells that were either treated with neosorangicn A (2) or 0.5% (v/v) DMSO as solvent control. • Figure 3. Comparison of sorangicin and neosorangicin biosynthetic pathways. Wavy bond symbolize phosphopantheteinyl arms. ACP domains are shown as small, unlabeled circles. Domains that are missing from one of the two pathways are shown as asterisks.
(§1) Cells. Human acute monocytic leukemia THP-1 cells (ACC-16) were obtained from the German Collection of Microorganisms and Cell Cultures (DSMZ) and were maintained under conditions recommended by the depositor.
Determination of intracellular efficiency. For infection experiments, cells were seeded in 24-well plates in RPMI-1640 supplemented with 10% FBS and 150 nM phorbol 12-myristate 13-acetate (PMA) at a concentration of 10^5 cells/well. After 2 d, the cells were differentiated into macrophages and reached a cell density of ca. 2 x 10^5 cells/well. […] The plates were incubated overnight at 37 °C and colonies were counted. […]

Data set [1] deals with Escherichia coli DSM-1116 + 3 µg/ml PMBN. The data set can be described thus: Microbroth dilution assay (MIC) with PMBN. It counts as cell-based. Particulars: 18-24 h. As for the experimental part:
(§2) Bacterial strains. All microorganisms were obtained from the German Collection of Microorganisms and Cell Cultures (Deutsche Sammlung für Mikroorganismen und Zellkulturen, DSMZ) and the American Type Culture Collection (ATCC) or were part of our internal strain collection.
(§3) Antimicrobial Testing. Sorangicin A (1) and Neosorangicin A (2) were tested in microbroth dilution assays on a panel of Gram-positive and Gram-negative bacteria. Overnight cultures were prepared from cryopreserved cultures and were diluted to achieve a final inoculum of 10^4-10^5 cfu/mL. Serial dilutions of compounds in DMSO were prepared in sterile 96-well plates in the test medium (cation-adjusted Müller-Hinton broth; supplemented with 2% (w/v) NaCl for S. aureus and 2.5% (v/v) lysed horse blood for Enterococcus and Streptococcus spp.) The cell suspension was added and microorganisms were grown for 18-24 h at either 30°C or 37°C. Streptococci and enterococci were grown under microaerophilic conditions. Growth inhibition was assessed by visual inspection and given MIC values are the lowest concentration of antibiotic at which there was no visible growth. Table 2. Antimicrobial activity; Minimum inhibitory concentrations (MIC, µg/mL) of neosorangicin A (2), sorangicin A (1), and a reference antibiotic (RIF; Rifampicin) on selected Gram-positive (I) and Gram-negative (II) species.
However, similar to 1, neosorangicin A (2) was not active on a rifampicin-resistant (Rif^R) derivative of S. aureus Newman, which confirms overlapping binding sites on RNA polymerase. […] In addition, the MIC values of 2 on efflux-deficient E. coli mutants (TolC as part of the AcrAB multidrug efflux system) were decreased.
Background: In broth dilution the organism is exposed to a series of concentrations in liquid medium.

The target in the next data set is T1, S. aureus RNA polymerase (Staphylococcus aureus, UniProt P47768).
T1 construct: purchased ProFoldin, MA
T1 sequence (P47768 whole entry): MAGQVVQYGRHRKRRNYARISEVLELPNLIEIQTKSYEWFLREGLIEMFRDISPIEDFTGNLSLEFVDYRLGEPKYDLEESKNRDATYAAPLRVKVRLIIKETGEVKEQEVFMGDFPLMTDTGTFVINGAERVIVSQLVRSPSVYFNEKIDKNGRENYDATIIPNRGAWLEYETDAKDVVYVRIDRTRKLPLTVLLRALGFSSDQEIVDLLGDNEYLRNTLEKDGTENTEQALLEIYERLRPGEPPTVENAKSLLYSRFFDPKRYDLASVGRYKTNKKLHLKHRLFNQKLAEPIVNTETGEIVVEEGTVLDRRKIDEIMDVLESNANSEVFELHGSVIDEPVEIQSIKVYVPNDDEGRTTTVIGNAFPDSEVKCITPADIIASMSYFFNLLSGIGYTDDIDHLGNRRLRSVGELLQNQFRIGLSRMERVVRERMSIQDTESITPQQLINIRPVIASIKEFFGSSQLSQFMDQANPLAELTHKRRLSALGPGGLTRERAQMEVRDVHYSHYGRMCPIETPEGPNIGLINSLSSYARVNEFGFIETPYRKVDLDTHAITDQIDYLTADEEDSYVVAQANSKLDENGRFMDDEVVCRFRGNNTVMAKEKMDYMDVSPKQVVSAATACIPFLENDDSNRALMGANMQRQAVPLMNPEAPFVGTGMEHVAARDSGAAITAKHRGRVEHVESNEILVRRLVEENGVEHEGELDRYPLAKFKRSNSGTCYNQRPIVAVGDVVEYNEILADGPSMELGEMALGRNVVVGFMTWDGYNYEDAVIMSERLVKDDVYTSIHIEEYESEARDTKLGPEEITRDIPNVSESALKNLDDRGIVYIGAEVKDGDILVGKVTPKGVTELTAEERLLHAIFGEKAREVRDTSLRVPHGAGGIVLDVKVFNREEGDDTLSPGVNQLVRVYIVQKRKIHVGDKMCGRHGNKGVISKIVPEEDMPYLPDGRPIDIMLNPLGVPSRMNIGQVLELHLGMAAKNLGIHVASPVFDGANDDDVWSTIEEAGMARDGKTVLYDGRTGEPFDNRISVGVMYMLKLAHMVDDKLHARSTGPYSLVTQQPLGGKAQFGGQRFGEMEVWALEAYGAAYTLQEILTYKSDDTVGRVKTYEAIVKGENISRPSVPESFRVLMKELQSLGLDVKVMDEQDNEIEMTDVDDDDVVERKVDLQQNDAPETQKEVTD
In words: RNA polymerase inhibition assay (ProFoldin kit). In kind it is biochemical. The settings on record: purified S. aureus RNA polymerase 25 nM; 1 h at room temperature; IC50 ± SD, two independent experiments; read-out: IC50. As for the experimental part: The inhibition of S. aureus RNA polymerase by Sorangicin derivatives 1 and 2 was tested in vitro (bacterial RNA Polymerase Assay Kit; ProFoldin, MA). The samples were prepared and analyzed according to the manufacturer's protocol with slight modifications. In brief, serial dilutions (concentration range: 0.1 nM - 10 µM) of rifampicin, sorangicin A (1) and neosorangicin A (2) in black 384-well plates (low-volume, non-binding surface; Corning) were incubated for 1 h at room temperature with 25 nM RNA polymerase from S. aureus in assay buffer (42.5 mM HEPES, 42.5 mM NH4Cl, 2 mM DTT, 4 mM MgCl2, 0.005 % (v/v) Tween-20; pH 7.5) containing 0.5 mM NTPs and 1x DNA template. The reaction was monitored by incubation with a fluorescent probe for 5 min and measurement of the fluorescence intensity at 535 nm after excitation at 485 nm (Tecan Infinite M200PRO). Half-inhibitory concentrations (IC50) were determined in two independent experiments by sigmoidal curve fitting and given values are IC50 ± SD.

Data set [2] deals with Staphylococcus aureus DSM-346. The data set can be described thus: Microbroth dilution assay (MIC). It counts as cell-based. The settings on record: 18-24 h, 2% NaCl. Here is the method:
as §2, §3

Data set [3] deals with Staphylococcus aureus ATCC29213. The data set can be described thus: Microbroth dilution assay (MIC). It counts as cell-based. Particulars: 18-24 h, 2% NaCl. As for the experimental part:
as §2, §3

Data set [4] deals with Pseudomonas aeruginosa DSM-1128. In words: Microbroth dilution assay (MIC). In kind it is cell-based. The settings on record: 18-24 h. As for the experimental part: as §2, §3
Data set [5] deals with Enterococcus faecium DSM-20477. In words: Microbroth dilution assay (MIC). It counts as cell-based. The settings on record: 18-24 h, 2.5% lysed horse blood, microaerophilic. As for the experimental part:
as §2, §3

For data set [6], the system named is Staphylococcus aureus Newman (Rif^R). The data set can be described thus: Microbroth dilution assay (MIC). In kind it is cell-based. Particulars: for Minimum inhibitory concentrations (MIC): Staphylococcus aureus Newman (Rif^R), 18-24 h, 2% NaCl; for activity on rifampicin-resistant (Rif^R) derivative of S. aureus Newman: result in words. Here is the method:
as §2, §3

Data set [7] has as its system Escherichia coli DSM-1116. The data set can be described thus: Microbroth dilution assay (MIC). It counts as cell-based. Particulars: 18-24 h. As for the experimental part:
as §2, §3

Data set [8] relates to Escherichia coli DSM-26863 (tolC3). In words: Microbroth dilution assay (MIC). In kind it is cell-based. Particulars: Escherichia coli DSM-26863 (tolC3); 18-24 h. Here is the method:
as §2, §3

Data set [9] has as its system Staphylococcus aureus Newman. In words: Microbroth dilution assay (MIC). Particulars: 18-24 h, 2% NaCl. In kind it is cell-based. Here is the method:
as §2, §3

The test system of data set [10] is Escherichia coli (TolC-deficient). In words: Microbroth dilution assay (MIC). In kind it is cell-based. Particulars: Escherichia coli (TolC-deficient); 18-24 h. Here is the method: as §2, §3
Data set [11] deals with Klebsiella pneumoniae DSM-30104. The data set can be described thus: Microbroth dilution assay (MIC). In kind it is cell-based. The settings on record: 18-24 h. Here is the method: as §2, §3
The subject of data set [12] is Streptococcus pneumoniae DSM-11865. In words: Microbroth dilution assay (MIC). It counts as cell-based. Particulars: 18-24 h, 2.5% lysed horse blood, microaerophilic. As for the experimental part:
as §2, §3

Data set [13] deals with Enterococcus faecalis DSM-20478. The data set can be described thus: Microbroth dilution assay (MIC). It counts as cell-based. The settings on record: 18-24 h, 2.5% lysed horse blood, microaerophilic. Here is the method:
as §2, §3

The test system of data set [14] is Acinetobacter baumannii DSM-30008. The data set can be described thus: Microbroth dilution assay (MIC). It counts as cell-based. The settings on record: 18-24 h. Here is the method:
as §2, §3

The test system of data set [15] is intracellular S. aureus Newman. The data set can be described thus: Intracellular efficacy in infected THP-1 macrophages. It counts as cell-based. Particulars: intracellular S. aureus Newman in PMA-differentiated THP-1 macrophages; MOI 10; 18 h treatment at 1x and 8x MIC. Here is the method:
as §1
Determination of intracellular efficiency. For infection experiments, cells were seeded in 24-well plates in RPMI-1640 supplemented with 10% FBS and 150 nM phorbol 12-myristate 13-acetate (PMA) at a concentration of 10^5 cells/well. After 2 d, the cells were differentiated into macrophages and reached a cell density of ca. 2 x 10^5 cells/well. The medium was then removed and the cells were washed twice with PBS. An inoculum of ca. 2×10^6 CFU (colony-forming units) of S. aureus Newman in log phase (multiplicity of infection, MOI=10) was added to each well in RPMI/10% FBS and the plates were incubated at 37 °C and 5% CO2 in a water vapor-saturated atmosphere. The inoculum was checked by serial dilution and plating on CASO agar (1.5% peptone casein, 0.5% peptone soymeal, 0.5% NaCl, 1.5% agar, pH 7.3). After 2 h, the infected cells were washed three times with PBS (phosphate-buffered saline; pH 7.4) and incubated with fresh growth medium containing 10 µg/mL lysostaphin (≥500 U/mg) for 30 min in order to kill remaining extracellular bacteria. […] The plates were incubated overnight at 37 °C and colonies were counted. […]

With neosorangicin A [compound 2], in the data set on S. aureus Newman, the “MIC values on S. aureus Newman” value is reported as 0.01 µg/mL. For the same substance, the “toxicity towards the human macrophages” value in the data set on Human THP-1 macrophages is given as “without displaying any apparent toxicity”. Further, the “Minimum inhibitory concentrations (MIC)” value is recorded as 0.25 µg/mL in [1]; 0.25 µg/mL in data set [2]; 0.01 µg/mL in data set [3]; 8 µg/mL in [4]; 8 µg/mL in data set [5]; more than 64 µg/mL in [6]. The “Minimum inhibitory concentrations (MIC)” value worked out at 8 µg/mL in [7]; 2 µg/mL in data set [8]; 0.01 µg/mL in data set [9]; 1 µg/mL in data set [10]; 8 µg/mL in data set [11]; 0.5 µg/mL in data set [12]. Further, the figures for the “Minimum inhibitory concentrations (MIC)” value in data set [13] and in data set [14] were 0.5 µg/mL and 8 µg/mL, respectively. Also, the IC50 at S. aureus RNA polymerase was found to be 60 ± 10 nM. Moreover, in data set [6], the “activity on rifampicin-resistant (Rif^R) derivative of S. aureus Newman” value is “not active”. Also, the “reduction of the bacterial load” value in data set [15] is on record as 3 Log.

With sorangicin A [compound 1], in the data set with S. aureus Newman, the “MIC values on S. aureus Newman” value is 0.13 µg/mL. Further, the “Minimum inhibitory concentrations (MIC)” value in data set [1] was 0.25 µg/mL; in data set [2] it was 1 µg/mL; in data set [3] it was 0.03 µg/mL; in [4], 32 µg/mL; in data set [5] it was 16 µg/mL; in data set [6], more than 64 µg/mL. For the same substance, the “Minimum inhibitory concentrations (MIC)” value in data set [7] was determined as 16 µg/mL; in [8], 8 µg/mL; in data set [9] it was 0.1 µg/mL; in data set [10], 8 µg/mL; in data set [11], 16 µg/mL; in data set [12] it was 32 µg/mL. The entries for the “Minimum inhibitory concentrations (MIC)” value in data set [13] and in data set [14] were 2 µg/mL and 8 µg/mL, respectively. Also, the IC50 at S. aureus RNA polymerase was 210 ± 120 nM. Besides, in [6], the “activity on rifampicin-resistant (Rif^R) derivative of S. aureus Newman” value was “not active”.
